Reference: PubChem BioAssay AID1963856 (Molecular Pharmacology Branch, DTP, NCI, 2024)

Tested on: LG0567-F671-PDC KRAS tumor spheroid viability
Test: Anticancer human tumor LG0567-F671-PDC patient-derived lung adenocarcinoma cell line growth inhibition [KRAS2]
Settings: spheroids with HUVEC and MSC; for IC50: curve of first compound; for viability, T/C: stronger effect = lower value
Excerpt: Multicellular complex tumor spheroid response to RAS pathway inhibitors in combination with a targeted agents in patient-derived cell lines with oncogenic KRAS variants from multiple cancer types
A high-throughput screen of multi-cell type tumor spheroids was designed to identify active combinations of targeted small molecules and KRAS pathway inhibitors. Complex spheroids include a stromal component modeled by human endothelial cells (HUVEC) and fibroblasts modeled by human mesenchymal stem cells (MSCs). The concentration ranges selected for each drug and investigational agent were based upon clinically achievable concentrations if the clinical Cmax of the agent was known.
Compounds. The drugs and investigational agents: BI-3406 (NSC825286), BAY-293 (NSC824723), batoprotafib (TNO155; NSC825523), sotorasib (AMG 510; NSC818433), MRTX1257 (NSC819558), elimusertib (BAY 1895344; NSC800525), molibresib (GSK525762; NSC774829), temuterkib (LY3214996; NSC803410), venetoclax (NSC766270), alisertib (NSC759677), olaparib (NSC753686), talazoparib (NSC767125), erdafitinib (NSC781556), ipatasertib (NSC767898), cabozantinib (NSC761068), nintedanib (NSC756659), abemaciclib (NSC768073), docetaxel (NSC628503), trametinib (NSC758246), and sapanisertib (NSC764658) were obtained from the National Cancer Institute (NCI) Developmental Therapeutics Program Chemical Repository. The FDA-approved anticancer drug set is available from the Developmental Therapeutics Program. […] The stock solutions were prepared in dimethyl sulfoxide (DMSO, Sigma-Aldrich, St. Louis, MO, cat. D2650) at 800-fold the tested concentration and stored at -70 degrees C prior to their use. All drugs and investigational agents were tested over a range starting from a high concentration at or near the clinical Cmax and decreasing in half-log increments. If the clinical Cmax for an agent had not been determined, the highest concentration tested was 10 microM.
Cell Culture. All cells were maintained in an incubator at 37 degrees C and 5% CO2 with 95% humidity. The PDC lines were cultured according to standard operating procedures established by the NCI PDMR (https://pdmr.cancer.gov/sops/default.htm). Briefly, all PDCs were thawed and cultured in Matrigel-coated flasks prepared with a working solution of 1X Ham's F-12 nutrient mix, without supplementation (Invitrogen, Waltham, MA, cat. 11765054), 100 U/mL penicillin-streptomycin (Invitrogen, cat. 15140122), and 2.5% Matrigel (Corning Inc., Corning, NY, cat. 354248) for the first three passages. All PDCs were cultured in complete DMEM/F-12 media containing advanced DMEM/F-12 (Invitrogen, cat. 12634028), 4.9% defined fetal bovine serum, heat inactivated (HyClone Laboratories Inc., Logan, UT, cat. SH30070.03HI), 389 ng/mL hydrocortisone (Sigma-Aldrich, cat. H4001), 9.7 ng/mL human EGF recombinant protein (Invitrogen, cat. PHG0313), 23.4 microg/mL adenine (Sigma-Aldrich, cat. A2786), 97.3 U/mL penicillin-streptomycin (Invitrogen, cat. 15140122), 1.9 mM L-glutamine (Invitrogen, cat. 25030081), and 9.7 microM Y-27632 dihydrochloride (Tocris Bioscience, Bristol, United Kingdom, cat. 1254). The PDCs were cultured in complete DMEM/F12 media without 9.7 microM Y-27632 dihydrochloride for at least two passages prior to the screen. The established cell line HOP-62 was cultured in RPMI 1640 medium, HEPES (Invitrogen, cat. 22400105) with 10% defined fetal bovine serum (HyClone Laboratories Inc., cat. SH30070.03) and 2 mM L-glutamine (Invitrogen, cat. 25030081). The pooled donor HUVEC were cultured in endothelial cell growth medium 2 (PromoCell, Heidelberg, Germany, cat. C-22011) and the hMSC were cultured in mesenchymal stem cell growth medium 2 (PromoCell, cat. C-28009). For all experiments, HUVEC and hMSC were used at passages </=5, while the malignant cell lines were used at passages </=15. […]

[1] = second compound 0.1 µM, first compound 0.0316 µM
[2] = second compound 0.316 µM, first compound 0.0316 µM
[3] = second compound 1 µM, first compound 0.0316 µM
[4] = second compound 3.16 µM, first compound 0.0316 µM
[5] = second compound 10 µM, first compound 0.0316 µM
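Note: drug exposure lasted seven days after spheroids formed for three days.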
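Throughout, for viability, T/C: 100% = DMSO vehicle control viability.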

With CC(=O)Nc1cccc(-n2c(=O)n(C3CC3)c(=O)c3c(Nc4ccc(I)cc4F)n(C)c(=O)c(C)c32)c1 + C=CC(=O)N1CCN(c2nc(=O)n(-c3c(C)ccnc3C(C)C)c3nc(-c4c(O)cccc4F)c(F)cc23)C(C)C1 the IC50 (second compound 0.1 µM) was less than 0.1 nM, the IC50 (second compound 0.316 µM) was less than 0.1 nM and the IC50 (second compound 1 µM) was less than 0.1 nM. It also gave an IC50 (second compound 3.16 µM) of less than 0.1 nM, an IC50 (second compound 10 µM) of less than 0.1 nM and a viability, T/C (second compound 0.1 µM, first compound 0.0001 µM) of 26.4%. For the same compound, the viability, T/C (second compound 0.1 µM, first compound 0.000316 µM) was 25.5%, the viability, T/C (second compound 0.1 µM, first compound 0.001 µM) was 26.4% and the viability, T/C (second compound 0.1 µM, first compound 0.00316 µM) was 27.6%. The viability, T/C (second compound 0.1 µM, first compound 0.01 µM) was 12.1%, the viability, T/C [1] was 4.13% and the viability, T/C (second compound 0.316 µM, first compound 0.0001 µM) was 24.9%. For the same compound, the viability, T/C (second compound 0.316 µM, first compound 0.000316 µM) was 24.7%, the viability, T/C (second compound 0.316 µM, first compound 0.001 µM) was 28.9% and the viability, T/C (second compound 0.316 µM, first compound 0.00316 µM) was 14.2%. For the same compound, the viability, T/C (second compound 0.316 µM, first compound 0.01 µM) was 8.8%, the viability, T/C [2] was 2.68% and the viability, T/C (second compound 1 µM, first compound 0.0001 µM) was 30.5%. It also gave a viability, T/C (second compound 1 µM, first compound 0.000316 µM) of 28.2%, a viability, T/C (second compound 1 µM, first compound 0.001 µM) of 22.8% and a viability, T/C (second compound 1 µM, first compound 0.00316 µM) of 17.7%. The viability, T/C (second compound 1 µM, first compound 0.01 µM) was 8.78%, the viability, T/C [3] was 3.83% and the viability, T/C (second compound 3.16 µM, first compound 0.0001 µM) was 26.7%. It also gave a viability, T/C (second compound 3.16 µM, first compound 0.000316 µM) of 27.7%, a viability, T/C (second compound 3.16 µM, first compound 0.001 µM) of 20.1% and a viability, T/C (second compound 3.16 µM, first compound 0.00316 µM) of 10.5%. The viability, T/C (second compound 3.16 µM, first compound 0.01 µM) was 10.7%, the viability, T/C [4] was 3.27% and the viability, T/C (second compound 10 µM, first compound 0.0001 µM) was 20.3%. The viability, T/C (second compound 10 µM, first compound 0.000316 µM) was 18.9%, the viability, T/C (second compound 10 µM, first compound 0.001 µM) was 16.9% and the viability, T/C (second compound 10 µM, first compound 0.00316 µM) was 11.7%. The viability, T/C (second compound 10 µM, first compound 0.01 µM) was 6.78% and the viability, T/C [5] was 4.36%.
With COc1cc(Nc2ncc3c(n2)-c2ccc(Cl)cc2C(c2c(F)cccc2OC)=NC3)ccc1C(=O)O + C=CC(=O)N1CCN(c2nc(=O)n(-c3c(C)ccnc3C(C)C)c3nc(-c4c(O)cccc4F)c(F)cc23)C(C)C1 the IC50 (second compound 0.1 µM) was less than 31.6 nM, the IC50 (second compound 0.316 µM) was less than 31.6 nM and the IC50 (second compound 1 µM) was less than 31.6 nM. For the same compound, the IC50 (second compound 3.16 µM) was less than 31.6 nM, the IC50 (second compound 10 µM) was less than 31.6 nM and the viability, T/C [1] was 25.7%. The viability, T/C (second compound 0.1 µM, first compound 0.1 µM) was 24.3%, the viability, T/C (second compound 0.1 µM, first compound 0.316 µM) was 25.9% and the viability, T/C (second compound 0.1 µM, first compound 1 µM) was 24.3%. For the same compound, the viability, T/C (second compound 0.1 µM, first compound 3.16 µM) was 22.8%, the viability, T/C (second compound 0.1 µM, first compound 10 µM) was 21.6% and the viability, T/C [2] was 12.2%. It also gave a viability, T/C (second compound 0.316 µM, first compound 0.1 µM) of 11.9%, a viability, T/C (second compound 0.316 µM, first compound 0.316 µM) of 11.1% and a viability, T/C (second compound 0.316 µM, first compound 1 µM) of 11.3%. It also gave a viability, T/C (second compound 0.316 µM, first compound 3.16 µM) of 11.4%, a viability, T/C (second compound 0.316 µM, first compound 10 µM) of 9.24% and a viability, T/C [3] of 27.2%. The viability, T/C (second compound 1 µM, first compound 0.1 µM) was 23.6%, the viability, T/C (second compound 1 µM, first compound 0.316 µM) was 23.5% and the viability, T/C (second compound 1 µM, first compound 1 µM) was 24.6%. It also gave a viability, T/C (second compound 1 µM, first compound 3.16 µM) of 25.7%, a viability, T/C (second compound 1 µM, first compound 10 µM) of 21.6% and a viability, T/C [4] of 23.8%. For the same compound, the viability, T/C (second compound 3.16 µM, first compound 0.1 µM) was 20.6%, the viability, T/C (second compound 3.16 µM, first compound 0.316 µM) was 20.2% and the viability, T/C (second compound 3.16 µM, first compound 1 µM) was 22.2%. The viability, T/C (second compound 3.16 µM, first compound 3.16 µM) was 21%, the viability, T/C (second compound 3.16 µM, first compound 10 µM) was 20.6% and the viability, T/C [5] was 23.3%. The viability, T/C (second compound 10 µM, first compound 0.1 µM) was 23.5%, the viability, T/C (second compound 10 µM, first compound 0.316 µM) was 23.8% and the viability, T/C (second compound 10 µM, first compound 1 µM) was 24.4%. The viability, T/C (second compound 10 µM, first compound 3.16 µM) was 22.5% and the viability, T/C (second compound 10 µM, first compound 10 µM) was 29.5%.
